The record followed here is ChEMBL document CHEMBL1909046, “DrugMatrix in vitro pharmacology data”.

SMILES strings stand for the structures.

The target in experiment [1] is cGMP-specific 3',5'-cyclic phosphodiesterase (Homo sapiens, UniProt O76074). The experiment in a line: DRUGMATRIX: Phosphodiesterase PDE5 enzyme inhibition (substrate: [3H]cGMP + cGMP). It is filed as tissue-based, Platelet. The following applies: platelet; Not Active = under 50% inhibition at 10 µM.
Experiment [2] in a line: DRUGMATRIX: GABAA, Chloride Channel, TBOB radioligand binding (ligand: [3H] TBOB). It is filed as cell membranes, Rattus norvegicus, Wistar, Cerebral cortex, Membrane. As to conditions: Not Active = under 50% inhibition at 10 µM.
The target of experiment [3] is T1, Muscarinic acetylcholine receptor M4 (Homo sapiens, UniProt P08173). Note: in other assays of this panel Not Active means under 50% inhibition at 10 µM.
T1 sequence (P08173 whole entry): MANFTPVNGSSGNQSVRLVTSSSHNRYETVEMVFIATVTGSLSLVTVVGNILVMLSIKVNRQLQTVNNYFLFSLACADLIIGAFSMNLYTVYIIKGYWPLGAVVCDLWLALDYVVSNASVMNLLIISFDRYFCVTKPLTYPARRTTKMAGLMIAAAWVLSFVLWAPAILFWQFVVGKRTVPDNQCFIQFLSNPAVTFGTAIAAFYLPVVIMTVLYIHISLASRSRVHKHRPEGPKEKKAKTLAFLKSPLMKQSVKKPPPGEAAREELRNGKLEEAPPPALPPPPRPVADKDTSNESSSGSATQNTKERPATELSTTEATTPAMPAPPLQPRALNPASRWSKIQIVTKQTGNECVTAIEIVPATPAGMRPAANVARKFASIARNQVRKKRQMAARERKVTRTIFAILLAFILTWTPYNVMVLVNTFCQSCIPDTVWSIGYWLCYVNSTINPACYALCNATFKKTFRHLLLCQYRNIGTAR
It is filed as cell membranes, CHO-K1, Membrane. As to conditions: cho-k1.

Another experiment has as its target Acetylcholinesterase (Homo sapiens, UniProt P22303). In words: DRUGMATRIX: Acetylcholinesterase enzyme inhibition (substrate: acetylthiocholine). As to conditions: Not Active = under 50% inhibition at 10 µM. It is filed as cell-based, HEK293.
Experiment [4] can be described thus: DRUGMATRIX: Imidazoline I2, Central radioligand binding (ligand: [3H] Idazoxan). The format is cell membranes, Rattus norvegicus, Wistar, Cerebral cortex, Membrane. The following applies: Not Active = under 50% inhibition at 10 µM.
Experiment [5] deals with Tyrosine-protein kinase Lck (Homo sapiens, UniProt P06239). In words: DRUGMATRIX: Protein Tyrosine Kinase, LCK enzyme inhibition (substrate: Poly(Glu:Tyr)). The following applies: insect cells; Not Active = under 50% inhibition at 10 µM. It is filed as cell-based, Insect cells.
Chain of Tyrosine-protein kinase Lck (P06239 whole entry): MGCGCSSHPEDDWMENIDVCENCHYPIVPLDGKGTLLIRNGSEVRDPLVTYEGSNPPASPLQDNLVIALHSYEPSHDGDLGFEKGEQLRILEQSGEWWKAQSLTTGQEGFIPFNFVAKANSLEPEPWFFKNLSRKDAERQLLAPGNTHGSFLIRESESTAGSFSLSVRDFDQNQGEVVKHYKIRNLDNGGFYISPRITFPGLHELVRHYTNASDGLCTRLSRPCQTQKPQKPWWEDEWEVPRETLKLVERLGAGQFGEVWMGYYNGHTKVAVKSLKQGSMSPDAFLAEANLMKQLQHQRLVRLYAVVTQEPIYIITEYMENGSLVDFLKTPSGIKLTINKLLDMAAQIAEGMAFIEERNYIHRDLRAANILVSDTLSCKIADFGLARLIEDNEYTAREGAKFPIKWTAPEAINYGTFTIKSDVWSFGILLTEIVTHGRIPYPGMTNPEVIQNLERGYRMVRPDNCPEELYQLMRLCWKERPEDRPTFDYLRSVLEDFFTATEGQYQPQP

Chain of Acetylcholinesterase (P22303 whole entry): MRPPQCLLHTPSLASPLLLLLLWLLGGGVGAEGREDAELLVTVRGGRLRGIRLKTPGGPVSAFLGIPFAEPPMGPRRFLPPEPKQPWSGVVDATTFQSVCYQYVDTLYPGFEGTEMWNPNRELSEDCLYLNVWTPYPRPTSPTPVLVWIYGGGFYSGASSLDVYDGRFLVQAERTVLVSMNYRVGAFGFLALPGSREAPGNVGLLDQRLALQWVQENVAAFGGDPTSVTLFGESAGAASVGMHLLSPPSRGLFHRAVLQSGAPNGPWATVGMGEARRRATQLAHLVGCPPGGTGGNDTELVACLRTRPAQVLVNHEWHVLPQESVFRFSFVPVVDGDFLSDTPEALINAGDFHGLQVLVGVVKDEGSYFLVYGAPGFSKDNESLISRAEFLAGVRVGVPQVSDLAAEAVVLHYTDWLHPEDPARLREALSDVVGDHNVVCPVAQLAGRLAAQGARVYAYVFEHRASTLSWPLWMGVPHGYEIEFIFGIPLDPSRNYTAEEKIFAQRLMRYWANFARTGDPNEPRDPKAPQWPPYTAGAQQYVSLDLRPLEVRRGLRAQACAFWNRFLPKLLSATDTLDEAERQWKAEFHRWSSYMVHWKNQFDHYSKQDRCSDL

Regarding `CO[C@@H]1[C@@H](OC)[C@H](C)[C@@](O)(CC(=O)O)O[C@H]1[C@H](C)[C@H]1O[C@@]2(CC[C@@](C)([C@H]3CC[C@@](C)([C@@H]4O[C@@H]([C@H]5O[C@](C)(O)[C@H](C)C[C@@H]5C)C[C@@H]4O[C@@H]4C[C@H](OC)[C@@H](OC)[C@H](C)O4)O3)O2)C[C@H](O)[C@H]1C.N` [MADURAMICIN], the IC50 result (in experiment [1]; in experiment [2]; in experiment [3]; against Acetylcholinesterase (hek293); in experiment [4]; in experiment [5]) was “Not Active” each time. Also, the Ki entry in experiment [2] and in experiment [4] was “Not Active” each time.
For `OC[C@@H](O)[C@@H](O)[C@H](O)[C@H](O)CO` [MANNITOL], the IC50 result (in experiment [1]; in experiment [2]; in experiment [3]; at Acetylcholinesterase (hek293); in experiment [4]; in experiment [5]) was “Not Active” throughout. Also, the Ki result in experiment [2] and in experiment [4] was “Not Active” in each case.
With `COC(=O)Nc1nc2ccc(C(=O)c3ccccc3)cc2[nH]1` [MEBENDAZOLE], the IC50 result (in experiment [1]; in experiment [2]; in experiment [3]; on Acetylcholinesterase (hek293); in experiment [4]; in experiment [5]) was “Not Active” in each case. In addition, the Ki result in experiment [2] and in experiment [4] was “Not Active” throughout.
Consider `Cc1ccc(Cl)c(Nc2ccccc2C(=O)O)c1Cl` [MECLOFENAMIC ACID], for which the half-maximal inhibitory concentration (IC50) entry (in experiment [1]; in experiment [2]; in experiment [3]; on Acetylcholinesterase (hek293); in experiment [4]; in experiment [5]) was “Not Active” in each case. In addition, the Ki result in experiment [2] and in experiment [4] was “Not Active” throughout.
With `CC(=O)O[C@]1(C(C)=O)CC[C@H]2[C@@H]3C[C@H](C)C4=CC(=O)CC[C@]4(C)[C@H]3CC[C@@]21C` [MEDROXYPROGESTERONE ACETATE], the concentration for half-maximal inhibition (IC50) result (in experiment [1]; in experiment [2]; in experiment [3]; at Acetylcholinesterase (hek293); in experiment [4]; in experiment [5]) was “Not Active” in each case. Further, the inhibition constant (Ki) result in experiment [2] and in experiment [4] was “Not Active” each time.
As for `Cc1cnc(NC(=O)C2=C(O)c3ccccc3S(=O)(=O)N2C)s1` [MELOXICAM], the half-maximal inhibitory concentration (IC50) entry (in experiment [1]; in experiment [2]; in experiment [3]; against Acetylcholinesterase (hek293); in experiment [4]; in experiment [5]) was “Not Active” each time. In addition, the Ki result in experiment [2] and in experiment [4] was “Not Active” throughout.
`CN1C[C@H](CNC(=O)OCc2ccccc2)C[C@@H]2c3cccc4c3c(cn4C)C[C@H]21` [METERGOLINE]: the IC50 entry in experiment [1] is “Not Active”; in experiment [2], “Not Active”; in experiment [3] it was “Not Active”; on Acetylcholinesterase (read-out: IC50) it was 1340 nM; in experiment [4] (read-out: IC50), 1920 nM; in experiment [5] it was “Not Active”. Also, the Ki result in experiment [2] is “Not Active”; in experiment [4] (read-out: Ki) it was 1280 nM.
For the molecule `CCN(CC)CCNC(=O)c1cc(Cl)c(N)cc1OC` [METOCLOPRAMIDE], the 50% inhibitory concentration (IC50) entry in experiment [1] is “Not Active”; in experiment [2], “Not Active”; in experiment [3], “Not Active”; against Acetylcholinesterase (hek293), “Not Active”; in experiment [4] (read-out: IC50) it was 708 nM; in experiment [5], “Not Active”. Further, the figures for the Ki entry in experiment [2] and in experiment [4] (read-out: Ki) were “Not Active” and 472 nM, respectively.
`CC[C@H](C)C(=O)O[C@H]1CCC=C2C=C[C@H](C)[C@H](CC[C@@H]3C[C@@H](O)CC(=O)O3)[C@H]21` [MEVASTATIN]: the IC50 entry (in experiment [1]; in experiment [2]; in experiment [3]; against Acetylcholinesterase (hek293); in experiment [4]; in experiment [5]) was “Not Active” in each case. Further, the Ki result in experiment [2] and in experiment [4] was “Not Active” throughout.
As to `CC#C[C@]1(O)CC[C@H]2[C@@H]3CCC4=CC(=O)CCC4=C3[C@@H](c3ccc(N(C)C)cc3)C[C@@]21C` [MIFEPRISTONE], the IC50 entry (in experiment [1]; in experiment [2]; in experiment [3]; against Acetylcholinesterase (hek293); in experiment [4]; in experiment [5]) was “Not Active” throughout. For the same molecule, the Ki entry in experiment [2] and in experiment [4] was “Not Active” throughout.
`Cc1[nH]c(=O)c(C#N)cc1-c1ccncc1` [MILRINONE]: the IC50 result (in experiment [1]; in experiment [2]; in experiment [3]; against Acetylcholinesterase (hek293); in experiment [4]; in experiment [5]) was “Not Active” in each case. Also, the Ki result in experiment [2] and in experiment [4] was “Not Active” throughout.
`CO[C@@]12[C@H](COC(N)=O)C3=C(C(=O)C(C)=C(N)C3=O)N1C[C@@H]1N[C@@H]12` [MITOMYCIN]: the IC50 entry (in experiment [1]; in experiment [2]; in experiment [3]; on Acetylcholinesterase (hek293); in experiment [4]; in experiment [5]) was “Not Active” each time. The Ki entry in experiment [2] and in experiment [4] was “Not Active” throughout.
In the case of `CCOc1cc(N)c(Cl)cc1C(=O)NCC1CN(Cc2ccc(F)cc2)CCO1` (stereo not drawn) [MOSAPRIDE], the 50% inhibitory concentration (IC50) result (in experiment [1]; in experiment [2]; in experiment [3]; against Acetylcholinesterase (hek293); in experiment [4]; in experiment [5]) was “Not Active” in each case. Further, the Ki result in experiment [2] and in experiment [4] was “Not Active” throughout.
For the molecule `CCN(CC)N=O` [N-NITROSODIETHYLAMINE], the half-maximal inhibitory concentration (IC50) result (in experiment [1]; in experiment [2]; in experiment [3]; against Acetylcholinesterase (hek293); in experiment [4]; in experiment [5]) was “Not Active” throughout. Besides, the Ki entry in experiment [2] and in experiment [4] was “Not Active” throughout.
Take `O=C1CC[C@@]2(O)[C@H]3Cc4ccc(O)c5c4[C@@]2(CCN3CC2CC2)[C@H]1O5` [NALTREXONE]: the IC50 entry (in experiment [1]; in experiment [2]; in experiment [3]; on Acetylcholinesterase (hek293); in experiment [4]; in experiment [5]) was “Not Active” in each case. Besides, the inhibition constant (Ki) entry in experiment [2] and in experiment [4] was “Not Active” in each case.
As for `Oc1ccc(/C=C/c2cc(O)cc(O)c2)cc1` [RESVERATROL], the IC50 result (in experiment [1]; in experiment [2]; in experiment [3]; on Acetylcholinesterase (hek293); in experiment [4]; in experiment [5]) was “Not Active” throughout. Further, the inhibitory constant (Ki) result in experiment [2] and in experiment [4] was “Not Active” in each case.
As to `CC(N)C12CC3CC(CC(C3)C1)C2` (stereo not drawn) [RIMANTADINE], the IC50 result (in experiment [1]; in experiment [2]; in experiment [3]; against Acetylcholinesterase (hek293); in experiment [4]; in experiment [5]) was “Not Active” in each case. In addition, the inhibitory constant (Ki) entry in experiment [2] and in experiment [4] was “Not Active” each time.
For the molecule `CS(=O)(=O)c1ccc(C2=C(c3ccccc3)C(=O)OC2)cc1` [ROFECOXIB], the IC50 entry (in experiment [1]; in experiment [2]; in experiment [3]; against Acetylcholinesterase (hek293); in experiment [4]; in experiment [5]) was “Not Active” in each case. Moreover, the Ki entry in experiment [2] and in experiment [4] was “Not Active” in each case.
As for `C=CCc1ccc2c(c1)OCO2` [SAFROLE], the IC50 result (in experiment [1]; in experiment [2]; in experiment [3]; against Acetylcholinesterase (hek293); in experiment [4]; in experiment [5]) was “Not Active” in each case. In addition, the inhibitory constant (Ki) result in experiment [2] and in experiment [4] was “Not Active” each time.
Consider `CCC(C)(C)C(=O)O[C@H]1C[C@@H](C)C=C2C=C[C@H](C)[C@H](CC[C@@H]3C[C@@H](O)CC(=O)O3)[C@H]21` [SIMVASTATIN], for which the 50% inhibitory concentration (IC50) result (in experiment [1]; in experiment [2]; in experiment [3]; against Acetylcholinesterase (hek293); in experiment [4]; in experiment [5]) was “Not Active” in each case. Further, the Ki result in experiment [2] and in experiment [4] was “Not Active” in each case.
In the case of `O=[As][O-].[Na+]` [SODIUM ARSENITE], the half-maximal inhibitory concentration (IC50) entry (in experiment [1]; in experiment [2]; in experiment [3]; on Acetylcholinesterase (hek293); in experiment [4]; in experiment [5]) was “Not Active” each time. The inhibition constant (Ki) result in experiment [2] and in experiment [4] was “Not Active” each time.

As usually defined, the IC50 is the concentration needed to halve the response being measured. One may read the Ki as a measure of affinity in units of concentration, obtained from inhibition or displacement.
